Drawing on PubChem BioAssay (NCI), this text covers TGI and GI50 for ten compounds.

Common to all, as to assay: NCI tumour cell line growth inhibition, 48 h
Experiment [1] has as its system HOP-62 NSCLC.
For experiment [2], the system named is SK-OV-3 ovarian.
In experiment [3] the test system is SR leukemia.
For experiment [4], the system named is OVCAR-3 ovarian.
The test system of experiment [5] is NCI-H522 lung.
Experiment [6] has as its system 786-0 renal.
Experiment [7] concerns SK-MEL-5 melanoma.
For experiment [8], the system named is MALME-3M melanoma.
Experiment [9] deals with UACC-62 melanoma.
The test system of experiment [10] is HL-60(TB) leukemia.

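Protocol summary: plate cells (96-well), add compound at 5 concentrations, incubate 48 h, interpolate endpoints linearly. Here, GI50 denotes the concentration required for 50% inhibition of growth. The concentration for full growth arrest is given as TGI.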

Turning to `COC(=O)/C(=C\c1ccc(N(CCC#N)CCC#N)cc1)NC(=O)c1cc([N+](=O)[O-])ccc1Cl`, the TGI in experiment [1] was more than 100 µM; in experiment [2] it was more than 100 µM; in [3], 81.5 µM; in [4], more than 100 µM; in [5], more than 100 µM; in [6], more than 100 µM. The TGI in experiment [7], in experiment [8] and in experiment [9] was more than 100 µM each time.

As to `COC1=C(Br)C(=O)c2nc(C)ccc2C1=O`, the TGI in experiment [1] is more than 60.3 µM; in [2] it was 33.6 µM; in experiment [3], 6.79 µM; in experiment [4], 19.5 µM; in experiment [5] it was 15.8 µM; in experiment [6], 27.2 µM. Moreover, the TGI was determined as 32 µM in experiment [7], 30.5 µM in experiment [8] and 33.2 µM in experiment [9].

For `COC(=O)c1cc(/C=C/c2ccc(S(N)(=O)=O)cc2)ccc1O`, the GI50 in [1] is 41.7 µM; in experiment [10] it was more than 100 µM; in [2] it was more than 100 µM; in experiment [4], 16.5 µM; in [5], 20.2 µM; in experiment [6], 7.35 µM. The results for the GI50 in [7], in experiment [8] and in [9] were 14.5 µM, 34.5 µM and 25.6 µM, respectively. Moreover, the TGI in [1] was more than 100 µM; in experiment [10], more than 100 µM; in experiment [2], more than 100 µM; in experiment [4], 62.7 µM; in experiment [5] it was 69.6 µM; in experiment [6], more than 100 µM. The TGI was 35.5 µM in experiment [7], more than 100 µM in experiment [8] and 66 µM in experiment [9].

In the case of `CC1CN1c1c(C(=O)/C=C/c2ccc(Cl)cc2)c(-c2ccccc2)nn(C)c1=O` (centres undefined), the TGI in [1] was 7.66 µM; in experiment [10], 5.22 µM; in experiment [2], 5.76 µM; in experiment [4] it was 6.79 µM; in experiment [5], 5.99 µM; in experiment [6] it was 8.95 µM. Besides, the TGI is more than 10 µM in experiment [8] and 5.69 µM in experiment [9].

As for `O=C(CSC(c1ccccc1)c1ccccc1)N/N=C/c1ccco1`, the GI50 in experiment [1] was 1.84 µM; in experiment [2], 28.3 µM; in experiment [4], 1.92 µM; in experiment [5], 1.4 µM; in experiment [6] it was 1.83 µM; in experiment [7], 1.5 µM. In addition, the GI50 in experiment [8] is 1.53 µM; in experiment [9], 2.52 µM. In addition, the TGI in experiment [1] was 3.84 µM; in [2], more than 73 µM; in experiment [4] it was 3.49 µM; in [5], 4.49 µM; in [6] it was 9.05 µM; in [7], 6.41 µM. For the same compound, the values for the TGI in [8] and in experiment [9] were 2.94 µM and 16.2 µM, respectively.

For `CC(=O)OC1C2CCC1C1C2C2(Cl)C(Cl)=C(Cl)C1(Cl)C2(Cl)Cl` (centres undefined), the TGI in experiment [1] amounted to 29 µM; in [2], 35.3 µM; in experiment [3], 24.6 µM; in experiment [4], 24 µM; in experiment [5], 25 µM; in experiment [6], 27.1 µM. Also, the TGI in [7] came out at 26 µM; in experiment [8], 27.1 µM; in experiment [9] it was 27 µM.

`Cc1cc(C)n(-c2nnc3n2N=C(c2ccc(-c4ccccc4)cc2)CS3)n1`: the GI50 in experiment [1] is 6.17 µM; in experiment [2], 3.79 µM; in experiment [3] it was 3.06 µM; in experiment [4] it was 2.31 µM; in experiment [5], 2.95 µM; in experiment [6], 3.95 µM. For the same compound, the GI50 was 2.46 µM in experiment [7], 3.44 µM in [8] and 2.49 µM in experiment [9]. In addition, the TGI in experiment [1] was more than 100 µM; in experiment [2] it was more than 100 µM; in experiment [3], more than 100 µM; in [4], 5.55 µM; in experiment [5], 12.9 µM; in experiment [6] it was more than 100 µM. Besides, the TGI in experiment [7] was 5.88 µM; in [8], 17 µM; in [9], 6.98 µM.

Turning to `CCN(CC)c1cc2oc3cc(N)cc(=N)c-3nc2cc1C`, the GI50 in experiment [1] is 2.91 µM; in experiment [2], 22.2 µM; in [4] it was 1.78 µM; in experiment [5] it was 2.31 µM; in experiment [6], 11.2 µM; in experiment [7] it was 1.42 µM. The GI50 in experiment [8] is 2.16 µM; in [9], 2.06 µM. The TGI was 9.26 µM in experiment [1]; more than 100 µM in [2]; 5.63 µM in [4]; 6.05 µM in experiment [5]; 70.1 µM in experiment [6]; 2.79 µM in experiment [7]. For the same compound, the TGI in experiment [8] came out at 6.08 µM; in [9] it was 5.94 µM.

On to `CC(C)(C)OC(=O)N1N=NC2C1C1CC(OCc3ccccc3)(OCc3ccccc3)C2O1` (centres undefined), for which the TGI was more than 100 µM in experiment [1]; 31.9 µM in experiment [10]; more than 100 µM in experiment [2]; more than 100 µM in experiment [4]; more than 100 µM in [6]; 32.6 µM in experiment [7]. Moreover, the TGI in experiment [8] and in experiment [9] was more than 100 µM in each case.

Consider `O=C1C(Cl)=C(Nc2ccccc2O)C(=O)N1Cc1ccccc1`, for which the GI50 in experiment [1] is 18.5 µM; in experiment [2], 28.5 µM; in [3], 51.7 µM; in [4], 18 µM; in [5] it was 29.1 µM; in experiment [6], 16.8 µM. The GI50 in experiment [7] is 15.3 µM; in experiment [8], 22.8 µM; in experiment [9], 19.1 µM. Also, the TGI in experiment [1] was 32.6 µM; in experiment [2], 71.9 µM; in experiment [3], more than 100 µM; in experiment [4], 31.9 µM; in [5], 97.2 µM; in [6], 30.4 µM. Further, the TGI turned out to be 28.6 µM in [7], 40.4 µM in experiment [8] and 46.4 µM in [9].
